Measured values: patent publication US11045519B2, “Arginine-rich polypeptide compositions and methods of using same” (UNM Rainforest Innovations, priority 2017, dated 2021)

Assays:
HPV16 PsVs [1] = test: Co-localization of HPV16 PsV with endosomal marker CD63 in HaCaT cells (confocal microscopy); type: cell-based; settings: 1 μM added 1 h after PsVs, further 7 h
Method: FIG. 9. PolyR inhibits HPV16 L2 protein cleavage by furin and induces accumulation of internalized virus particles in late endosomal fraction. (A) Equal amount of HPV16 diluted in 50 μl furin assay buffer (1 mM CaCl2), 100 mM HEPES, 0.5% Triton X-100, 1 mM β-mercaptoethanol) was loaded into six tubes, and subsequently incubated for two hours at 30° C. without any inhibitor, in the presence of 1.3 μM furin inhibitor1 (Merck Millipore Corp., Burlington, Mass.), or 1 μM polyR. Samples were mixed with SDS-PAGE sample buffer and boiled before fractionation on 9% gel. Proteins were transferred onto PVDF membranes and after blocking, incubated with affinity-purified rabbit anti-HPV16 polyclonal antibody. Secondary donkey anti-rabbit horseradish peroxidase-coupled antibody was used for detection of HPV16 capsid proteins. (B) HaCaT cells grown on coverslips were incubated with HPV16 PsVs for one hour at 37° C. to initiate virus binding (and partial internalization) before adding 1 μM polyR and further incubated for seven hours. After the incubation, cells were fixed and stained for HPV16 and endogenous CD63, using primary anti-HPV16 rabbit polyclonal and anti-CD63 mouse monoclonal antibodies (Santa Cruz Biotechnology, Inc., Dallas, Tex.). […]

authentic HPV16 virions = test: Authentic HPV16 virion infection of HaCaT cells, RT-qPCR of spliced E1^E4 mRNA; type: cell-based; settings: 0.5 μM, 100 vge/cell, three days post-infection
Method: FIG. 10. PolyR inhibits activity of authentic HPV16 virions. HaCaT cells were infected with authentic HPV16 virions (100 vge/cell) in the presence or absence of 500 nM polyR. At three days post-infection, total RNA was extracted from cells using TRIzol reagent (Invitrogen, Thermo Fisher Scientific, Inc., Carlsbad, Calif.). Equal amount of the RNA of polyR-treated and untreated cells was subjected to reverse transcription. Each RT reaction was divided into three qPCR amplifications of 45 cycles targeting the spliced transcripts of cellular β-actin or HPV16 cDNAs. Primers E7.4A and E4B target an amplimer derived from spliced E1^E4 RNA, as previously described (Patterson et al., 2005. J Virol 79:6838-6847).
To validate the effect of polyR was not simply related to pseudovirus infections, HaCaT cells were infected with authentic HPV16 virions carrying viral genomes (100 vge/cell) in the presence or absence of 0.5 μM polyR. At three days post-infection, the cells were harvested and total RNA was extracted using TRIzol reagent (Invitrogen, Thermo Fisher Scientific, Inc., Carlsbad, Calif.). Nucleic acid concentrations were determined by optical density measurements. […] Quantification of cDNA derived from the spliced viral E1^E4 mRNA via qPCR was analyzed in triplicate samples from multiple separate experimental infections.

HPV16 PsVs [2] = test: Mouse cervicovaginal HPV16 PsV infection model (luciferase in vivo imaging); set-up: species or system BALB/c mice; settings: 2 μM in 3% CMC, intravaginal, cytobrush abrasion, imaging 48 h after PsV, n=3
From the text: FIG. 11. PolyR inhibits HPV16 infectivity in vivo. (A). Six-week-old to eight-week-old female BALB/c mice were exposed to HPV16 PsVs transducing Luciferase (5×10^8 infection units (IU)/animal). (B). Percent of in vivo infectivity represents % of infection calculated from luciferase readouts from panel A. Error bars represents SD n=3. Luciferase raw data (average radiance photons/s/cm^2) of polyR-untreated mice is considered as 100%.
Until recently, in vivo animal studies on infectivity of HPV were problematic, because productive papillomavirus infection is species-restricted and tissue-restricted, and traditional models use animal papillomaviruses in closely related or native host species. However, a recently developed mouse model of cervicovaginal infection using HPV16 PsVs has overcome such restrictions (Roberts et al., 2007. Nature Medicine 13:857-861). In the original study, 3% carboxymethylcellulose (CMC) was used to mimic the viscosity of a typical vaginal gel and determined that disruption of genital epithelium by chemical (Nonoxynol-9) or mechanical (using cytobrush) injury is crucial for efficient HPV PsV infection. Nonoxynol-9 (N-9) is a highly toxic strong non-ionic detergent that disturbs the normal architecture of animal and human genital epithelium. […] The average radiance per mouse was measured in photons/s/cm^2/sr for a set region (of equal dimensions) among mice.

Substance: poly-L-arginine [polyR]
- co-localization of HPV16 and CD63 (HPV16 PsVs [1]): significantly increased co-localization of HPV16 and CD63
- inhibition of HPV16 infection (RT-qPCR) (authentic HPV16 virions): ~90%
- reduction of infection in vivo (HPV16 PsVs [2]): 50%
